In patent publication US11180452B2, “Methods and compositions for selectively inhibiting pathogenic microbes” (priority 2019, dated 2021):
In brackets after ≈: the same amount, converted by molar mass. Several values for one entry are separate records, joined by “and”; a condition that tells them apart may be missing. Equal values may be shown once. Read-outs that look alike come from different tables or passages of the source.

Assays:
Bacillus thuringiensis = type: cell-based; conditions: Bacillus thuringiensis Berliner ATCC: 10792; for MIC: Bacillus thuringiensis, read-out: MIC
NoSpin HepaRG cells = test: HepaRG cytotoxicity, MTT assay EC50; type: cell-based, human; conditions: Homo sapiens, HepaRG; cytotoxicity EC50, Table 9
Protocol: Additionally, the antimicrobial compounds were analyzed for cytotoxicity. […] We utilized the standard MTT assay (Promega CellTiter 96) and GraphPad Prism 7 software to determine EC50 values for each analogue. Briefly, 20,000 HepG2 cells in 200 μl of the ATCC recommended media were seeded in each well of a 96-well plate with a moisture barrier created in the outermost wells. The cells were allowed to attach overnight at 37° C., and then observed under phase contrast microscopy for proper morphological characteristics. […] Once incubations were complete, the spectrophotometric absorbance of the samples was measured at a wavelength of 595 nm. […] For the HepaRG assay, NoSpin HepaRG™ cells (Lonza, cat #NSHPRG) were thawed and plated with 20,000 cells per well. They were allowed to attach for 4 h (optimal DME profile per Lonza's testing) before dosing following the identical protocol as above.

[1] = test system: Francisella tularensis subsp. Holarctica Strain LVSR NR-597; test: microbe, parasite or virus in culture; type: cell-based
Bacillus subtilis = Bacillus subtilis MIC / MBC; type: cell-based; conditions: for MBC: Bacillus subtilis NRRL: B-571, minimum bactericidal concentration; for MIC: Bacillus subtilis
N. gonorrhoeae = N. gonorrhoeae MIC; type: cell-based; conditions: Neisseria gonorrhoeae
Trichophyton rubrum = test: MIC against Trichophyton rubrum; type: cell-based; conditions: Trichophyton rubrum Castellani Sabouraud ATCC: 28188; read-out: MIC
Candida glabrata = Candida glabrata MIC / MFC; type: cell-based; conditions: Nakaseomyces glabratus, Candida glabrata #584 (Table 2); for MIC: read-out: MIC
[2] = test system: Burkholderia thailandensis Brett et al ATCC: 700388; test: microbe, parasite or virus in culture; type: cell-based
[3] = test system: Francisella tularensis strains; test: microbe, parasite or virus in culture; type: cell-based
[4] = Toxicity in mice, body weight over 7 days; type: in vivo, Balb/c mice; conditions: for Animal body weight (kg) Day 0 / Animal body weight (kg) Day 1 / Animal body weight (kg) Day 2 / Animal body weight (kg) Day 3 / Animal body weight (kg) Day 4 / Animal body weight (kg) Day 5 / Animal body weight (kg) Day 6 / Animal body weight (kg) Day 7: mice, IP; for Animal body weight (kg) Day 0: Day 0, individual animals; for Animal body weight (kg) Day 1: Day 1, individual animals; for Animal body weight (kg) Day 2: Day 2, individual animals; for Animal body weight (kg) Day 3: Day 3, individual animals; for Animal body weight (kg) Day 4: Day 4, individual animals; for Animal body weight (kg) Day 5: Day 5, individual animals; for Animal body weight (kg) Day 6: Day 6, individual animals; for Animal body weight (kg) Day 7: Day 7, individual animals
Text: The vehicle is 40% PEG300 solution in 0.9% NaCl. […] Thus, the compounds are useful for in vivo antimicrobial administration.

[5] = Bacillus subtilis (Ehrenberg 1835) Cohn 1872 NRRL: B-571, read-out: MIC

SMILES: Fc1ccc2[nH]cc(Sc3ccc(Br)cc3)c2c1 [Compound 174E, 3-((4-bromophenyl)thio)-5-fluoro-1H-indole]
- MBC (Bacillus thuringiensis): 3.13 µg/mL (≈ 9.71 µM)
- MIC (Bacillus thuringiensis): 1.56 µg/mL (≈ 4.84 µM)
- EC50 (NoSpin HepaRG cells): 23.6 µg/mL (≈ 73.2 µM)
- MIC [1]: 0.78 µg/mL (≈ 2.42 µM)
- MBC (Bacillus subtilis): 3.13 µg/mL (≈ 9.71 µM)
- MIC (Bacillus subtilis; [5]): 1.56 µg/mL (≈ 4.84 µM)
- MIC (N. gonorrhoeae; strain #167): < 0.39 µg/mL
- MIC (N. gonorrhoeae; strain #203): 1.56 µg/mL (≈ 4.84 µM)
- MIC (N. gonorrhoeae; strain #205): 1.56 µg/mL (≈ 4.84 µM)
- MIC (Trichophyton rubrum): 2.01 µg/mL (≈ 6.24 µM)
- MIC (Candida glabrata): 3.13 µg/mL (≈ 9.71 µM)
- MIC [2]: > 50 µg/mL

SMILES: Oc1ccccc1Sc1c[nH]c2ccc(Br)cc12 [Compound 174AI, 2-((5-bromo-1H-indol-3-yl)thio)phenol]
- MBC (Bacillus thuringiensis): > 50 µg/mL
- MIC (Bacillus thuringiensis): 0.78 µg/mL (≈ 2.44 µM)
- EC50 (NoSpin HepaRG cells): 27.4 µg/mL (≈ 85.6 µM)
- MIC [1]: 2 µg/mL (≈ 6.25 µM)
- MIC50 [3]: 3 µg/mL (≈ 9.37 µM)
- MIC ([3]; read-out: F. tularensis BSL-3 MIC, Strain 100): 6 µg/mL (≈ 18.7 µM)
- MIC ([3]; read-out: F. tularensis BSL-3 MIC, strain HN-63): 2 µg/mL (≈ 6.25 µM)
- MIC ([3]; read-out: F. tularensis BSL-3 MIC, strain LVS): 4 µg/mL (≈ 12.5 µM)
- MIC ([3]; read-out: F. tularensis BSL-3 MIC, strain MA00-2987): 1.67 µg/mL (≈ 5.22 µM)
- MIC ([3]; read-out: F. tularensis BSL-3 MIC, strain MO #1): 1.33 µg/mL (≈ 4.15 µM)
- MIC ([3]; read-out: F. tularensis BSL-3 MIC, strain MO #2): 1.33 µg/mL (≈ 4.15 µM)
- MIC ([3]; read-out: F. tularensis BSL-3 MIC, strain MO #3): 2 µg/mL (≈ 6.25 µM)
- MIC ([3]; read-out: F. tularensis BSL-3 MIC, strain OR-96): 4 µg/mL (≈ 12.5 µM)
- MIC ([3]; read-out: F. tularensis BSL-3 MIC, strain SCHU S4): 4 µg/mL (≈ 12.5 µM)
- MIC ([3]; read-out: F. tularensis BSL-3 MIC, strain WY-96): 6 µg/mL (≈ 18.7 µM)
- MIC ([3]; read-out: MAX, highest MIC over the Francisella tularensis strains): 6 µg/mL (≈ 18.7 µM)
- MIC ([3]; read-out: MIN, lowest MIC over the Francisella tularensis strains): 1.33 µg/mL (≈ 4.15 µM)
- MBC (Bacillus subtilis): 6.25 µg/mL (≈ 19.5 µM)
- MIC (Bacillus subtilis; [5]): 0.78 µg/mL (≈ 2.44 µM)
- MIC (Bacillus subtilis; strain B-571 (Table 4), read-out: Bacillus subtilis MIC): 0.78 µg/mL (≈ 2.44 µM)
- MIC (Bacillus subtilis; strain B-1985, read-out: Bacillus subtilis MIC): 0.78 µg/mL (≈ 2.44 µM)
- MIC (Bacillus subtilis; strain B-3665, read-out: Bacillus subtilis MIC): 6.25 µg/mL (≈ 19.5 µM)
- MIC (Bacillus subtilis; strain B-14322, read-out: Bacillus subtilis MIC): 3.13 µg/mL (≈ 9.77 µM)
- MIC (Bacillus subtilis; strain B-41090, read-out: Bacillus subtilis MIC): 6.25 µg/mL (≈ 19.5 µM)
- MIC (Bacillus subtilis; strain B-41581, read-out: Bacillus subtilis MIC): 6.25 µg/mL (≈ 19.5 µM)
- MIC (Bacillus subtilis; strain BD-594, read-out: Bacillus subtilis MIC): 6.25 µg/mL (≈ 19.5 µM)
- MIC (N. gonorrhoeae; strain #167): < 0.39 µg/mL
- MFC (Candida glabrata; minimum fungicidal concentration, read-out: MFC): 25 µg/mL (≈ 78.1 µM)
- MIC (Candida glabrata): 6.25 µg/mL (≈ 19.5 µM)
- toxicity in mice by body weight ([4]; 6-week-old Balb/c mice, body weight over 7 days, vehicle 40% PEG300 in 0.9% NaCl): did not have significant toxicity
- Animal body weight (kg) Day 0 ([4]; 0.1 mg/kg, 0.1 mg/kg): 0.023 kg (2×) and 0.022 kg
- Animal body weight (kg) Day 1 ([4]; 0.1 mg/kg, 0.1 mg/kg): 0.022 kg (2×) and 0.021 kg
- Animal body weight (kg) Day 2 ([4]; 0.1 mg/kg, 0.1 mg/kg): 0.023 kg and 0.022 kg and 0.021 kg
- Animal body weight (kg) Day 3 ([4]; 0.1 mg/kg, 0.1 mg/kg): 0.024 kg and 0.022 kg (2×)
- Animal body weight (kg) Day 4 ([4]; 0.1 mg/kg, 0.1 mg/kg): 0.024 kg and 0.022 kg (2×)
- Animal body weight (kg) Day 5 ([4]; 0.1 mg/kg, 0.1 mg/kg): 0.024 kg and 0.022 kg (2×)
- Animal body weight (kg) Day 6 ([4]; 0.1 mg/kg, 0.1 mg/kg): 0.024 kg and 0.022 kg (2×)
- Animal body weight (kg) Day 7 ([4]; 0.1 mg/kg, 0.1 mg/kg): 0.023 kg (2×) and 0.022 kg
- Animal body weight (kg) Day 0 ([4]; 1 mg/kg, 1 mg/kg): 0.022 kg and 0.024 kg and 0.026 kg
- Animal body weight (kg) Day 1 ([4]; 1 mg/kg, 1 mg/kg): 0.023 kg and 0.024 kg and 0.026 kg
- Animal body weight (kg) Day 2 ([4]; 1 mg/kg, 1 mg/kg): 0.023 kg and 0.025 kg and 0.026 kg
- Animal body weight (kg) Day 3 ([4]; 1 mg/kg, 1 mg/kg): 0.023 kg and 0.025 kg and 0.027 kg
- Animal body weight (kg) Day 4 ([4]; 1 mg/kg, 1 mg/kg): 0.022 kg and 0.025 kg and 0.026 kg
- Animal body weight (kg) Day 5 ([4]; 1 mg/kg, 1 mg/kg): 0.022 kg and 0.025 kg and 0.026 kg
- Animal body weight (kg) Day 6 ([4]; 1 mg/kg, 1 mg/kg): 0.022 kg and 0.024 kg and 0.026 kg
- Animal body weight (kg) Day 7 ([4]; 1 mg/kg, 1 mg/kg): 0.022 kg and 0.024 kg and 0.026 kg
- Animal body weight (kg) Day 0 ([4]; 10 mg/kg, 10 mg/kg): 0.022 kg and 0.026 kg and 0.024 kg
- Animal body weight (kg) Day 1 ([4]; 10 mg/kg, 10 mg/kg): 0.021 kg and 0.024 kg and 0.022 kg
- Animal body weight (kg) Day 2 ([4]; 10 mg/kg, 10 mg/kg): 0.022 kg and 0.024 kg and 0.023 kg
- Animal body weight (kg) Day 3 ([4]; 10 mg/kg, 10 mg/kg): 0.022 kg and 0.025 kg and 0.023 kg
- Animal body weight (kg) Day 4 ([4]; 10 mg/kg, 10 mg/kg): 0.022 kg and 0.026 kg and 0.024 kg
- Animal body weight (kg) Day 5 ([4]; 10 mg/kg, 10 mg/kg): 0.023 kg and 0.026 kg and 0.024 kg
- Animal body weight (kg) Day 6 ([4]; 10 mg/kg, 10 mg/kg): 0.022 kg and 0.026 kg and 0.024 kg
- Animal body weight (kg) Day 7 ([4]; 10 mg/kg, 10 mg/kg): 0.022 kg and 0.026 kg and 0.023 kg
- MBC [2]: > 50 µg/mL
- MIC [2]: 12.5 µg/mL (≈ 39 µM)
